# Results published in patent US9532947B2, “Formulation for oral transmucosal administration of analgesic and/or antispasmodic molecules” (priority 2009, dated 2017).
# How the values were obtained:
# [1] = Complete dissolution of active principle in approximately 40° ethanol (dissolution coefficient); type: physicochemical
# From the text: The expression “stable and completely dissolved state” refers to a solution state rendering the active principle in the molecular and weakly ionized state in its solution medium, this solution state preventing any possibility of inopportune recrystallization. This stable and completely dissolved state may be monitored immediately on use of the formulation of the invention by evaluating the visual appearance of the solution obtained (measurement of the degree of limpidity), then at the level of the filtration residues (appearance or non-appearance of crystals), and finally in the medium-term and long-term during stability tracking tests at varying temperatures and relative humidities.
# By way of illustration, the dissolution coefficient of phloroglucinol in ethanol makes it possible to obtain complete dissolution of said active principle at the rate of 20 milligrams (mg) of phloroglucinol in 0.75 mL of approximately 40° ethanol.
# Similarly, the coefficient of dissolution of tiemonium methylsulfate in ethanol makes it possible to obtain complete dissolution of said active principle at the rate of 10 mg of tiemonium in 0.75 mL of approximately 40° ethanol. The coefficient of dissolution of nefopam in ethanol makes it possible to obtain complete dissolution of said active principle at the rate of 20 mg of nefopam in 1 mL of approximately 40° ethanol.
# [2] = oral/digestive route, cited from earlier work; for fraction of the orally administered dose that is truly bioavailable (residual part reaching the smooth muscular membranes): coated pill or ODT form, on average at best
complete dissolution of active principle at the rate of [1],SMILES,truly bioavailable dose of active principle resorbed by the digestive tract ([2]; all three main metabolites have no pharmacological activity),fraction of the orally administered dose that is truly bioavailable (residual part reaching the smooth muscular membranes) [2]
20 mg in 1 mL,CN1CCOC(c2ccccc2)c2ccccc2C1 (stereo not drawn) [nefopam],virtually nil,–
20 mg in 0.75 mL,Oc1cc(O)cc(O)c1 [phloroglucinol],–,40% to 50
10 mg in 0.75 mL,"COS(=O)(=O)[O-].C[N+]1(CCC(O)(c2ccccc2)c2cccs2)CCOCC1 (stereo not drawn) [tiemonium, tiemonium methylsulfate]",–,10% to 15
